# Data taken from PMC6199744, “Development of Chemical Proteomics for the Folateome and Analysis of the Kinetoplastid Folateome” (ACS Infectious Diseases, 2018).
# Read-outs that look alike come from different tables or passages of the source.
# Key:
# Assay type in all cases: binding
# [1] = biological target: T1, HeLa cell extract proteins (Homo sapiens, UniProt P35579)
# T1 construct: endogenous in cells; host or cells: HeLa cell extract
# [2] = biological target: T2, HeLa cell extract proteins (Homo sapiens, UniProt Q6PJT7)
# T2 construct: endogenous in cells; host or cells: HeLa cell extract
# T2 sequence (Q6PJT7 1-736): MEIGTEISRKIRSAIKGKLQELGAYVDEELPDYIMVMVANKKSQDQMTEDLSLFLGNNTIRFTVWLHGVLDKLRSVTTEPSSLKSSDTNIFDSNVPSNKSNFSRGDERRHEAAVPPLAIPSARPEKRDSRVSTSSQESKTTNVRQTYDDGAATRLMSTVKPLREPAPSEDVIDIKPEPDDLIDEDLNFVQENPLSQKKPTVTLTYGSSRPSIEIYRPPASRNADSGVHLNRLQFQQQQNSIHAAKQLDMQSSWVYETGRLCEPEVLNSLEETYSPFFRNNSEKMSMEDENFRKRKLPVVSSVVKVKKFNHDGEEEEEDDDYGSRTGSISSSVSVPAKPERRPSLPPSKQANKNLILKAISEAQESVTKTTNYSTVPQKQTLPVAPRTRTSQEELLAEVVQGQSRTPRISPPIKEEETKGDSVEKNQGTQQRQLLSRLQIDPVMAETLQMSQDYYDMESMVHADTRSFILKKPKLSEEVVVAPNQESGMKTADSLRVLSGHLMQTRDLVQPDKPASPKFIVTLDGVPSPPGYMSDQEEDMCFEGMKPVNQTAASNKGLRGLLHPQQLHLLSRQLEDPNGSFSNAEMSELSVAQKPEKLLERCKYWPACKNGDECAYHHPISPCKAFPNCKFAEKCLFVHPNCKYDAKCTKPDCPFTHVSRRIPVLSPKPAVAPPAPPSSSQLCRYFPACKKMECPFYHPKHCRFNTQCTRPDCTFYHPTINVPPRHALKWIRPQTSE
# [3] = biological target: T3, HeLa cell extract proteins (Homo sapiens, UniProt Q9P035)
# T3 construct: endogenous in cells; host or cells: HeLa cell extract
# T3 sequence (Q9P035 1-362): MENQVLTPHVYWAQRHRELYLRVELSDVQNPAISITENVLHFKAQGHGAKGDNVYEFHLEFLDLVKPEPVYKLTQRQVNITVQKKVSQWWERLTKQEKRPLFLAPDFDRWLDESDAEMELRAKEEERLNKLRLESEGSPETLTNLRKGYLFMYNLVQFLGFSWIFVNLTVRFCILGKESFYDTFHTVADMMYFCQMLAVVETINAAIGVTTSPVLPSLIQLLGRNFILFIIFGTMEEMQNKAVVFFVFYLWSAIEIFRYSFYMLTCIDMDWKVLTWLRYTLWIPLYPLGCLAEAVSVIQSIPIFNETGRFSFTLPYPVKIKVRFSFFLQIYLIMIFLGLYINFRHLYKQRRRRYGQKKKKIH
# [4] = biological target: T4, HeLa cell extract proteins (Homo sapiens, UniProt Q9NSI6)
# T4 construct: endogenous in cells; host or cells: HeLa cell extract
# T4 sequence (Q9NSI6 whole entry): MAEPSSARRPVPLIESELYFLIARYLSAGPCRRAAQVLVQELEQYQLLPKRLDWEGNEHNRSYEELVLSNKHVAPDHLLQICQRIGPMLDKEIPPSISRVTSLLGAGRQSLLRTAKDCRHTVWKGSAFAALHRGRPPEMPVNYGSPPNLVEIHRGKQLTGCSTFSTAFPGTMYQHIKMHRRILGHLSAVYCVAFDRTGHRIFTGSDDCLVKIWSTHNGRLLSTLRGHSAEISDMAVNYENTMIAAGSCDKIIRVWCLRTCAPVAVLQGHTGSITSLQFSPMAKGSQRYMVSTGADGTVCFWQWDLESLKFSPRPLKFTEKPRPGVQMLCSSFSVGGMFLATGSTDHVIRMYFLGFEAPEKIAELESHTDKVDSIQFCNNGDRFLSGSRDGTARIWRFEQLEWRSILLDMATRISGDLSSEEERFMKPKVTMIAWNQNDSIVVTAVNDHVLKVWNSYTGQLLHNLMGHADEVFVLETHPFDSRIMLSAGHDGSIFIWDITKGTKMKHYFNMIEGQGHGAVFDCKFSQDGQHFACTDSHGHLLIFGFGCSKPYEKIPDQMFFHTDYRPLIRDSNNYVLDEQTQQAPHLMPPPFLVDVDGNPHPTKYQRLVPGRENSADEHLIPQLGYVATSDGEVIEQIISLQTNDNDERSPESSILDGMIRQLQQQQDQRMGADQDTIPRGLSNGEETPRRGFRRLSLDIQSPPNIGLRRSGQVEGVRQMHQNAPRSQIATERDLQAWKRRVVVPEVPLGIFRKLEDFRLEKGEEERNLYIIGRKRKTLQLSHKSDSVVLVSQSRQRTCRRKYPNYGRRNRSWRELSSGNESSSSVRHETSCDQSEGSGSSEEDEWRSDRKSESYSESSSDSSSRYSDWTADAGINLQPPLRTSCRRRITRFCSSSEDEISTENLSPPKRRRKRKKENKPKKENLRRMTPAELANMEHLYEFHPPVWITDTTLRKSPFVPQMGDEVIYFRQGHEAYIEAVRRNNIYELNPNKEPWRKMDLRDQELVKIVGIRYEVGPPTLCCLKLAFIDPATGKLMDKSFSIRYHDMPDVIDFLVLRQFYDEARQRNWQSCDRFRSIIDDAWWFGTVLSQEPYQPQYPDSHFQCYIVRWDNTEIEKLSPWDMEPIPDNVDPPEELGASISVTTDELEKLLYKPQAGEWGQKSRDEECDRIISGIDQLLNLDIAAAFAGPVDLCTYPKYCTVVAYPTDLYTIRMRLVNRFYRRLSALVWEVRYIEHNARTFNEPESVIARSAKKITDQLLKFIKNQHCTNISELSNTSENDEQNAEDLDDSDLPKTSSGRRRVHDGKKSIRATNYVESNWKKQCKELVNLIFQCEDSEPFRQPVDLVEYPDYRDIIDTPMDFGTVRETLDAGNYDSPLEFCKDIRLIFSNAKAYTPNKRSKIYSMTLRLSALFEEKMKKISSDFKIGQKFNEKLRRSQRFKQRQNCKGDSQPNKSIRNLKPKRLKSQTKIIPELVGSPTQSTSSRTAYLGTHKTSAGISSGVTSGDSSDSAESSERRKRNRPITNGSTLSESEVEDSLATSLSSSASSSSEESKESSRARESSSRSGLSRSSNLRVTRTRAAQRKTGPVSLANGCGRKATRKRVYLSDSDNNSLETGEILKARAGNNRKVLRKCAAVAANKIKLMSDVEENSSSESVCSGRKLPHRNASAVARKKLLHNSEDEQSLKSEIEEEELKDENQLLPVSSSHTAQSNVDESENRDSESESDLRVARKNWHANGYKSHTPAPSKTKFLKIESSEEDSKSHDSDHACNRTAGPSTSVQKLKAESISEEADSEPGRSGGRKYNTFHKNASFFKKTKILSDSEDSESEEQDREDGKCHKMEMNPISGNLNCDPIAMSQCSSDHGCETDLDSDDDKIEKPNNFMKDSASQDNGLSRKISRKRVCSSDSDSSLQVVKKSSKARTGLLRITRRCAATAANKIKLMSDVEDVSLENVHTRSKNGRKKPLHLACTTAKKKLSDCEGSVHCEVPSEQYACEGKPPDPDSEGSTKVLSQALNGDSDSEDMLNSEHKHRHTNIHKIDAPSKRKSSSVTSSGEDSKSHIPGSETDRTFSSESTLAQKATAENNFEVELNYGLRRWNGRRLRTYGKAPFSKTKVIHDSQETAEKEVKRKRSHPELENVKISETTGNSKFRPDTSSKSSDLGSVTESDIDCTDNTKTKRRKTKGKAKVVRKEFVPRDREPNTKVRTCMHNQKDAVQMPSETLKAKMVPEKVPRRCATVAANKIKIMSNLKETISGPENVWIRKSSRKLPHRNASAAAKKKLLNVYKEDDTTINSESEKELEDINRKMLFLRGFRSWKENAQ
# [5] = biological target: T5, HeLa cell extract proteins (Homo sapiens, UniProt Q99832)
# T5 construct: endogenous in cells; host or cells: HeLa cell extract
# T5 sequence (Q99832 1-543): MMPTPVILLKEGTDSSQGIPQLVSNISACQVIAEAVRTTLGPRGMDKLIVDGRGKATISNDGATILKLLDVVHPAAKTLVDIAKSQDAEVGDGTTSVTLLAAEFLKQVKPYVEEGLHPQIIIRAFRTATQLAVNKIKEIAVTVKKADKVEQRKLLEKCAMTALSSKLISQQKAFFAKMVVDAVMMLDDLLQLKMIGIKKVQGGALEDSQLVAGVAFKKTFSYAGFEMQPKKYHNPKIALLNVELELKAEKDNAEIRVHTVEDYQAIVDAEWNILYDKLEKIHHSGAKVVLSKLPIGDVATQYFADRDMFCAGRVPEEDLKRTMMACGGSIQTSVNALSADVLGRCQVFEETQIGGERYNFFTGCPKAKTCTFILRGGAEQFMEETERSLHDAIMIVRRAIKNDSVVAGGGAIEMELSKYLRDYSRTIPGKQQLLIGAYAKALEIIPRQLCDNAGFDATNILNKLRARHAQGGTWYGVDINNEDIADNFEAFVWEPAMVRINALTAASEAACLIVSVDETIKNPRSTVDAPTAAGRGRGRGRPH
# [6] = biological target: T6, HeLa cell extract proteins (Homo sapiens, UniProt P13667)
# T6 construct: endogenous in cells; host or cells: HeLa cell extract
# T6 sequence (P13667 21-645): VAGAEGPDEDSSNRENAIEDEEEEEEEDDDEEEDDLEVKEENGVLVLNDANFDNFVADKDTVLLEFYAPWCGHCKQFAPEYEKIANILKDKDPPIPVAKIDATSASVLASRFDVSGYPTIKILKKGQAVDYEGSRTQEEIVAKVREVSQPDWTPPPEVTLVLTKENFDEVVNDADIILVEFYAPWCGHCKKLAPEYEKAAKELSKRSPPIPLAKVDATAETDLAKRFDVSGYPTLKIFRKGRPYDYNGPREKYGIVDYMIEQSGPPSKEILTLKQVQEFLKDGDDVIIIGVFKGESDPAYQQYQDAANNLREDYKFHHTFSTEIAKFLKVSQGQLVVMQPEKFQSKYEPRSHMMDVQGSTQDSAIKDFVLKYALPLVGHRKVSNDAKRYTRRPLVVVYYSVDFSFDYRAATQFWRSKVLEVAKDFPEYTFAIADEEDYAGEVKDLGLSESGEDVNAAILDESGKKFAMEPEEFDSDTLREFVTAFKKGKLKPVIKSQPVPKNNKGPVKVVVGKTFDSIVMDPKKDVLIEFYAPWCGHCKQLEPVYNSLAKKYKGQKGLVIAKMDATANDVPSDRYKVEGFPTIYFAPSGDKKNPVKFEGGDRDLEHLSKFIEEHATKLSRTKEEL
# [7] = biological target: T7, HeLa cell extract proteins (Homo sapiens, UniProt P05023)
# T7 construct: endogenous in cells; host or cells: HeLa cell extract
# [8] = biological target: T8, HeLa cell extract proteins (Homo sapiens, UniProt Q99613)
# T8 construct: endogenous in cells; host or cells: HeLa cell extract
# [9] = HeLa, protein PDIA4 (PROTEIN DISULFIDE-ISOMERASE A4 PRECURSOR.)
# T1 sequence (P35579 whole entry): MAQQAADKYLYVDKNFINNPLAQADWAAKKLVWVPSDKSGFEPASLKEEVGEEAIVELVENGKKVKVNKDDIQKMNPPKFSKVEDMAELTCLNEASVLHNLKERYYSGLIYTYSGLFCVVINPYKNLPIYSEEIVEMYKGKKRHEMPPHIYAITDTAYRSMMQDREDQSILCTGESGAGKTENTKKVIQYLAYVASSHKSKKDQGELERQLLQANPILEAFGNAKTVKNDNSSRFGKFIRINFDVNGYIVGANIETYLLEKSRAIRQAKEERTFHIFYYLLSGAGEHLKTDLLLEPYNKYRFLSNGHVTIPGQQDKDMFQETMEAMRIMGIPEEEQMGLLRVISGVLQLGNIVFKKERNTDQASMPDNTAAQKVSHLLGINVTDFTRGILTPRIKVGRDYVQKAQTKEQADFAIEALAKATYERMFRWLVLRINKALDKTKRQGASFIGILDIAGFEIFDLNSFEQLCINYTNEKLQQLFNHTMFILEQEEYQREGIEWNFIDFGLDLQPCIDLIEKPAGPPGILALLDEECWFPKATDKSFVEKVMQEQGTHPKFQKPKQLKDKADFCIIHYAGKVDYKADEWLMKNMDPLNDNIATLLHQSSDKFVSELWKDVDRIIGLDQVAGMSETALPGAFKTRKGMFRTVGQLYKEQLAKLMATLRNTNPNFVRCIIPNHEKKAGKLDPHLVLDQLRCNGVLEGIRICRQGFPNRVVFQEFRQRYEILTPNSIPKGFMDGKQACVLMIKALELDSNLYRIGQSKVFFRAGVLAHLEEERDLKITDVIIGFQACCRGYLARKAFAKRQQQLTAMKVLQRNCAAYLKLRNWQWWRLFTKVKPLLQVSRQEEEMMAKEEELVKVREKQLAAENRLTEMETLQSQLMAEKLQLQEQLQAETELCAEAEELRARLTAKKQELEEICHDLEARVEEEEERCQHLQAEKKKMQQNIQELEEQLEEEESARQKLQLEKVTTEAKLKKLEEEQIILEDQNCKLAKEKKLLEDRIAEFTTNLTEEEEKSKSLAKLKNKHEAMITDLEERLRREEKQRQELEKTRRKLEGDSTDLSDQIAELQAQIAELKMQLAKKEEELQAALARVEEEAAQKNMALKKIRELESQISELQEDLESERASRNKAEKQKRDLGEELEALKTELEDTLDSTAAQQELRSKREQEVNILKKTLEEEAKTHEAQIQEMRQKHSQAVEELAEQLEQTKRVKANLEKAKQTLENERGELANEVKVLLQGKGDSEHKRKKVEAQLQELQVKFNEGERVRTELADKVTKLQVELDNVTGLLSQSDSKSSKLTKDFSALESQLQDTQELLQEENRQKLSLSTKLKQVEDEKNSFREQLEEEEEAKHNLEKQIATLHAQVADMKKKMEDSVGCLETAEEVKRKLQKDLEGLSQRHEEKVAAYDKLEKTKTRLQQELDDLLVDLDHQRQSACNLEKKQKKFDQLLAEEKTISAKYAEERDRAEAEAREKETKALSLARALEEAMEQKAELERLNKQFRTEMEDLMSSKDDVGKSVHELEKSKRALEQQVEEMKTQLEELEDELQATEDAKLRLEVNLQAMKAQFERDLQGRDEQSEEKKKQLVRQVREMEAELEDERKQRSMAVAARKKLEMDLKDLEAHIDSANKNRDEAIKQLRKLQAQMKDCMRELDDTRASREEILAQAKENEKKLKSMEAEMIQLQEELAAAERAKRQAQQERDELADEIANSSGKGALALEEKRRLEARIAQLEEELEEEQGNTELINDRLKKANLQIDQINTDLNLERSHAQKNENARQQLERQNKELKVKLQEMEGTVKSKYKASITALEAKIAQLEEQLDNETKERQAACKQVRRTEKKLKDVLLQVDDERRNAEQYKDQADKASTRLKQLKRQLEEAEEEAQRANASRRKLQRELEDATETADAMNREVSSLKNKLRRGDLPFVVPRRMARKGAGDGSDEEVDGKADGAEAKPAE
compound,measurement,setting,value
Nc1nc2cccc(-c3ccccc3)c2n1Cc1ccc(Cl)c(Cl)c1 [compound 3],fold changes relative to vehicle control,"[1]; captured protein MYH9, HeLa",0.85
same,fold changes relative to vehicle control,"[2]; captured protein ZC3H14, HeLa",0.96
same,fold changes relative to vehicle control,"[3]; captured protein PTPLAD1, HeLa",2.73
same,fold changes relative to vehicle control,"[4]; captured protein BRWD1, HeLa",0.9
same,fold changes relative to vehicle control,"[5]; protein CCT7, HeLa",0.98
same,fold changes relative to vehicle control,[6]; [9],0.75 fold
same,fold changes relative to vehicle control,"[7]; protein ATP1A1, HeLa",0.94
same,fold changes relative to vehicle control,"[8]; protein EIF3C, HeLa",1.08
"Nc1nc2[nH]cc(CCc3ccc(C(=O)N[C@@H](CCC(=O)O)C(=O)O)cc3)c2c(=O)[nH]1 [PTX, pemetrexed]",fold changes relative to vehicle control,[1],0.99
same,fold changes relative to vehicle control,[2],0.95
same,fold changes relative to vehicle control,[3],1
same,fold changes relative to vehicle control,[4],1.07
same,fold changes relative to vehicle control,[5],1.01
same,fold changes relative to vehicle control,[6],1.04
same,fold changes relative to vehicle control,[7],0.96
same,fold changes relative to vehicle control,[8],0.94
"Nc1nc2c(c(=O)[nH]1)N(C=O)C(CNc1ccc(C(=O)N[C@@H](CCC(=O)O)C(=O)O)cc1)CN2 (some centres unmarked) [LEU, leucovorin]",fold changes relative to vehicle control,"[1]; HeLa, protein MYH9 (MYOSIN-9)",0.97
same,fold changes relative to vehicle control,"[2]; HeLa, captured protein ZC3H14",1
same,fold changes relative to vehicle control,"[3]; HeLa, protein PTPLAD1",0.97
same,fold changes relative to vehicle control,"[4]; HeLa, protein BRWD1",0.93
same,fold changes relative to vehicle control,"[5]; HeLa, protein CCT7",1.01
same,fold changes relative to vehicle control,"[6]; protein PDIA4, HeLa",0.93
same,fold changes relative to vehicle control,"[7]; protein ATP1A1, HeLa",0.76
same,fold changes relative to vehicle control,"[8]; protein EIF3C, HeLa",1.02
CCCCCCOc1cccc(Cc2cnc(N)nc2N)c1 [compound 2],fold changes relative to vehicle control,"[1]; captured protein MYH9, HeLa",1.23
same,fold changes relative to vehicle control,"[2]; captured protein ZC3H14, HeLa",0.94
same,fold changes relative to vehicle control,"[3]; captured protein PTPLAD1, HeLa",1.02
same,fold changes relative to vehicle control,"[4]; captured protein BRWD1, HeLa",1.03
same,fold changes relative to vehicle control,"[5]; protein CCT7, HeLa",1.62
same,fold changes relative to vehicle control,[6]; [9],2.84 fold
same,fold changes relative to vehicle control,"[7]; protein ATP1A1, HeLa",1.25
same,fold changes relative to vehicle control,"[8]; protein EIF3C, HeLa",1.19
NCCOCCOCC(=O)Nc1nc2ncc(CNc3ccc(C(=O)NC(CCC(=O)O)C(=O)O)cc3)nc2c(=O)[nH]1 (centres unmarked) [compound 6],fold changes relative to vehicle control,"[1]; HeLa, protein MYH9 (MYOSIN-9)",1.44
same,fold changes relative to vehicle control,"[2]; HeLa, captured protein ZC3H14",0.99
same,fold changes relative to vehicle control,"[3]; HeLa, protein PTPLAD1",1.04
same,fold changes relative to vehicle control,"[4]; HeLa, protein BRWD1",1.05
same,fold changes relative to vehicle control,"[5]; HeLa, protein CCT7",1.2
same,fold changes relative to vehicle control,"[6]; protein PDIA4, HeLa",1.14
same,fold changes relative to vehicle control,"[7]; protein ATP1A1, HeLa",1.05
same,fold changes relative to vehicle control,"[8]; protein EIF3C, HeLa",1.02
CCCCCCOc1ccc(Cc2cnc(N)nc2N)cc1 [compound 1],fold changes relative to vehicle control,"[1]; captured protein MYH9, HeLa",0.91
same,fold changes relative to vehicle control,"[2]; captured protein ZC3H14, HeLa",0.83
same,fold changes relative to vehicle control,"[3]; captured protein PTPLAD1, HeLa",1.06
same,fold changes relative to vehicle control,"[4]; captured protein BRWD1, HeLa",1.01
same,fold changes relative to vehicle control,"[5]; protein CCT7, HeLa",1.08
same,fold changes relative to vehicle control,[6]; [9],1.76 fold
same,fold changes relative to vehicle control,"[7]; protein ATP1A1, HeLa",0.73
same,fold changes relative to vehicle control,"[8]; protein EIF3C, HeLa",1.1
NCCCNc1ccc(C(=O)NC(CCC(=O)O)C(=O)O)cc1 (centres unmarked) [compound 7],fold changes relative to vehicle control,"[1]; HeLa, protein MYH9 (MYOSIN-9)",0.9
same,fold changes relative to vehicle control,"[2]; HeLa, captured protein ZC3H14",1.04
same,fold changes relative to vehicle control,"[3]; HeLa, protein PTPLAD1",1.05
same,fold changes relative to vehicle control,"[4]; HeLa, protein BRWD1",0.92
same,fold changes relative to vehicle control,"[5]; HeLa, protein CCT7",1.11
same,fold changes relative to vehicle control,"[6]; protein PDIA4, HeLa",0.87
same,fold changes relative to vehicle control,"[7]; protein ATP1A1, HeLa",0.92
same,fold changes relative to vehicle control,"[8]; protein EIF3C, HeLa",0.88
